Test results taken from publication PMC5367033, “Inhibitors of BRD4 Protein from a Marine-Derived Fungus Alternaria sp. NH-F6” (Marine Drugs, 2017).

Molecular target: T1, BRD4 (Homo sapiens, UniProt O60885)
T1 construct: His-tagged BRD4-BD1 (bromodomain 1)
Test: TR-FRET (HTRF) displacement of biotin-labeled peptide ligand from BRD4-BD1; single dose, […]
Type: biochemical
Conditions: read-out: Inhibition Rate / 10 μM

O=C1CC[C@]2(O)c3c(ccc(O)c31)-c1ccc(O)c3c1C2[C@@H](O)[C@@H](Cl)[C@H]3O (stereo partly drawn) [compound 1, 12β-Chloro-3,9α,11β,13β,16-pentahydroxy-8,9,10,11,12,13-hexahydro-6(7H)-one]
inhibition at 10 µM: 57.7%

O=C1C=Cc2c3c4c(c(O)ccc4c4ccc(O)c1c24)[C@H](O)[C@H](O)[C@H]3O [compound 2, 3,11α,12β,13β,16-Pentahydroxy-11,12-dihydroperylen-6(13H)-one]
inhibition at 10 µM: 88.1%
